Activity data for one compound are collected here from ChEMBL document CHEMBL5543113, “Amphiphilic α-Peptoid-deoxynojirimycin Conjugate-based Multivalent Glycosidase Inhibitor for Hypoglycemic Effect and Fluorescence Imaging” (J Med Chem, 2024).

This series can be described thus: Self assembly property of the compound assessed as diameter at 1 x 10^-4 mol/L by dynamic light scattering spectrometric analysis. In kind it is physicochemical. Particulars: 100 µM; dose 1 10^-4mol/L.

As to `CCCCCCCCCCCCCCCCCCNC(=O)CN(Cc1cn(CCCCCCN2C[C@H](O)[C@@H](O)[C@H](O)[C@H]2CO)nn1)C(=O)CN(Cc1cn(CCCCCCN2C[C@H](O)[C@@H](O)[C@H](O)[C@H]2CO)nn1)C(=O)CN(Cc1cn(CCCCCCN2C[C@H](O)[C@@H](O)[C@H](O)[C@H]2CO)nn1)C(=O)CN(Cc1cn(CCCCCCN2C[C@H](O)[C@@H](O)[C@H](O)[C@H]2CO)nn1)C(C)=O`, the Activity turned out to be 276 nm.
